According to patent US20260232658A1, “AZETIDINYL BENZOXAZOLE COMPOUNDS AND THEIR USE AS MER AND AXL INHIBITORS” (DONG-A ST CO., LTD., priority 2022, published 2026):

Tests used:
TYRO3 (455-end) = biological target: T1, TYRO3 (455-end) (Homo sapiens, UniProt Q06418); assay: HTRF kinase activity biochemical assay, TYRO3; conditions: recombinant kinase, 10 uM ATP, 30 minutes pre-incubation; read-out: HTRF TYRO IC50;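 further: biotinylated tyrosine kinase substrate phosphorylation detected via streptavidin-XL665 and Eu3+-cryptate anti-phospho antibody time-resolved fluorescence, read after 1 h detection at room temperature, 384-well format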
T1 construct: TYRO3 (455-end); purchased SignalChem, Canada
T1 sequence (Q06418 455-890 limits assumed): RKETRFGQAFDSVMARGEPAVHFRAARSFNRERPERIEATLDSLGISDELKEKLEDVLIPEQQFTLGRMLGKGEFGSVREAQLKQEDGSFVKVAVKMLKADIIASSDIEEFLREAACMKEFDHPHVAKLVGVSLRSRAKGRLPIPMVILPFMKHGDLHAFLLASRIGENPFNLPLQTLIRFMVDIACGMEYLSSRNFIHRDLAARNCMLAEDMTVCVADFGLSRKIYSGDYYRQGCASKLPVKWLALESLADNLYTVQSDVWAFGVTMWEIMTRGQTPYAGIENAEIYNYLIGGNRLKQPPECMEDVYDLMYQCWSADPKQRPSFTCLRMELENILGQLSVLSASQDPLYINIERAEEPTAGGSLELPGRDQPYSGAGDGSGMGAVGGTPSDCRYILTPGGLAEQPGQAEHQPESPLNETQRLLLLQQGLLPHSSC

MC-38 cells = assay: MC-38 Efficacy Assay (tumor growth inhibition); assay type: in vivo, Female C57BL/6 mice; conditions: once a day for 21 days, subcutaneous MC-38 tumors in C57BL/6 mice
human AXL (473-end) = biological target: T2, human AXL (473-end) (Homo sapiens, UniProt P30530); assay: HTRF kinase activity biochemical assay, AXL; conditions: recombinant kinase, 10 uM ATP, 30 minutes pre-incubation; read-out: HTRF AXL IC50;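 further: phosphorylation of a biotinylated tyrosine kinase substrate detected via Eu3+-cryptate anti-TK antibody and streptavidin-XL665, fluorescence read after a 1 h incubation at room temperature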
T2 construct: human AXL (473-end); purchased SignalChem, Canada
T2 sequence (P30530 473-894 limits assumed): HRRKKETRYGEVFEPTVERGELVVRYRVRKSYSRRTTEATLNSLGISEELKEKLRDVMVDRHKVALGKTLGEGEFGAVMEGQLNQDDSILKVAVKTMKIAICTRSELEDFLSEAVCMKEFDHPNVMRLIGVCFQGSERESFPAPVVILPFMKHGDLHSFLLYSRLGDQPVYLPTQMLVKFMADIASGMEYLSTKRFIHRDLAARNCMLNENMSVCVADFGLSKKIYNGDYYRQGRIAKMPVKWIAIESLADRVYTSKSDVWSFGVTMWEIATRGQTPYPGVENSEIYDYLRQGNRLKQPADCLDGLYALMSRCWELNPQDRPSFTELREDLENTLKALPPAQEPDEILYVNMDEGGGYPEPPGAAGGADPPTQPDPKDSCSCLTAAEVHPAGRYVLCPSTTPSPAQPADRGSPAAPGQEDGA

human MER (528-end) = biological target: T3, human MER (528-end) (Homo sapiens, UniProt Q12866); assay: HTRF kinase activity biochemical assay, MER; conditions: recombinant kinase, 10 uM ATP, 30 minutes pre-incubation; read-out: HTRF MERTK IC50;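 further: phosphorylation of a biotin-tagged tyrosine kinase substrate detected by Eu3+-cryptate antibody and streptavidin-XL665 time-resolved fluorescence, read after 1 h at room temperature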
T3 construct: human MER (528-end); purchased Carnabio, Japan
T3 sequence (Q12866 528-999 limits assumed): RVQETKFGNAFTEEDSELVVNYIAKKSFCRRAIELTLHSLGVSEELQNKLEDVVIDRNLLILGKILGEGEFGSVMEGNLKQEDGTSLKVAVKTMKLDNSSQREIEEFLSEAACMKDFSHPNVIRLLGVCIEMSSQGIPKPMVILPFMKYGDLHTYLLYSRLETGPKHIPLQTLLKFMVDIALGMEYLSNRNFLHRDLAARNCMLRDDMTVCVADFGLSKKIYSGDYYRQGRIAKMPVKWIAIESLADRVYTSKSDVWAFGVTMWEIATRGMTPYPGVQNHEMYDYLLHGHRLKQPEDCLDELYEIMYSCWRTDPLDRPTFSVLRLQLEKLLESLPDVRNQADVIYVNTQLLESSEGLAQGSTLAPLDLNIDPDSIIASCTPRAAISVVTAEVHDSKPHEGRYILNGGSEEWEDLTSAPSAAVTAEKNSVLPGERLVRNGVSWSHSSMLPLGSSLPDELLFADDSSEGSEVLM

SMILES | IC50 (TYRO3 (455-end)) | IC50 (human AXL (473-end)) | IC50 (human MER (528-end)) | % TGI (dose) (MC-38 cells; 10 mg/kg/d) | % TGI (dose) (MC-38 cells; 30 mg/kg/d) | % TGI (dose) (MC-38 cells; 15 mg/kg/d)
CN1CCC(Oc2ccc3nc(N4CC(c5cnc(Nc6cnn(C)c6)c(C(N)=O)n5)C4)oc3c2)C1=O (stereo not drawn) [Example 72, 6-(1-{6-[(1-methyl-2-oxopyrrolidin-3-yl)oxy]-1,3-benzoxazol-2-yl}azetidin-3-yl)-3-[(1-methyl-1H-pyrazol-4-yl)amino]pyrazine-2-carboxamide] | 0.94 µM | 0.003 µM | 0.001 µM |  | 44% | 
Cn1cc(Nc2ncc(C3CN(c4nc5ccc(OCCC(C)(C)OP(=O)(O)O)cc5o4)C3)nc2C(N)=O)cn1 [Example 77, 4-{[2-(3-{6-carbamoyl-5-[(1-methyl-1H-pyrazol-4-yl)amino]pyrazin-2-yl}azetidin-1-yl)-1,3-benzoxazol-6-yl]oxy}-2-methylbutan-2-yl dihydrogen phosphate] | 3.3 µM | 0.054 µM | 0.033 µM |  |  | 39%
Cn1cc(Nc2ncc(C3CN(c4nc5ccc(OCc6ccn(C)n6)cc5o4)C3)nc2C(N)=O)cn1 [Example 80, 3-[(1-methyl-1H-pyrazol-4-yl)amino]-6-(1-{6-[(1-methyl-1H-pyrazol-3-yl)methoxy]-1,3-benzoxazol-2-yl}azetidin-3-yl)pyrazine-2-carboxamide] | 0.048 µM | 0.001 µM | < 0.001 µM | 23% |  | 
Cn1cc(Nc2ccc(C3CN(c4nc5ccc(OCC(C)(C)O)cc5o4)C3)nc2C(N)=O)cn1 [Example 85, 6-{1-[6-(2-hydroxy-2-methylpropoxy)-1,3-benzoxazol-2-yl]azetidin-3-yl}-3-[(1-methyl-1H-pyrazol-4-yl)amino]pyridine-2-carboxamide] | 1.85 µM | 0.004 µM | 0.002 µM | 37% |  | 
CCOC(=O)Cn1cc(COc2ccc3nc(N4CC(c5cnc(Nc6cnn(C)c6)c(C(N)=O)n5)C4)oc3c2)cn1 [Example 104C, ethyl [4-({[2-(3-{6-carbamoyl-5-[(1-methyl-1H-pyrazol-4-yl)amino]pyrazin-2-yl}azetidin-1-yl)-1,3-benzoxazol-6-yl]oxy}methyl)-1H-pyrazol-1-yl]acetate] | 0.62 µM | 0.027 µM | 0.004 µM |  |  | 
Cn1cc(Nc2ccc(C3CN(c4nc5ccc(OCC(C)(C)OC(=O)CN)cc5o4)C3)nc2C(N)=O)cn1 [Example 108, 1-{[2-(3-{6-carbamoyl-5-[(1-methyl-1H-pyrazol-4-yl)amino]pyridin-2-yl}azetidin-1-yl)-1,3-benzoxazol-6-yl]oxy}-2-methylpropan-2-yl glycinate] | 0.88 µM | 0.004 µM | < 0.001 µM |  |  | 
Cn1cc(Nc2ccc(C3CN(c4nc5ccc(OCCC(C)(C)OP(=O)(O)O)cc5o4)C3)nc2C(N)=O)cn1 [Example 109, 4-{[2-(3-{6-carbamoyl-5-[(1-methyl-1H-pyrazol-4-yl)amino]pyridin-2-yl}azetidin-1-yl)-1,3-benzoxazol-6-yl]oxy}-2-methylbutan-2-yl dihydrogen phosphate] | 2.2 µM | 0.078 µM | 0.027 µM |  |  | 
Cn1cc(Nc2ncc(C3CN(c4nc5ccc(C(C)(C)CO)cc5o4)C3)nc2C(N)=O)cn1 [Example 111, 6-{1-[6-(1-hydroxy-2-methylpropan-2-yl)-1,3-benzoxazol-2-yl]azetidin-3-yl}-3-[(1-methyl-1H-pyrazol-4-yl)amino]pyrazine-2-carboxamide] | 0.64 µM | 0.006 µM | 0.005 µM |  |  | 
CCOC(=O)C(C)(C)c1ccc2nc(N3CC(c4cnc(Nc5cnn(C)c5)c(C(N)=O)n4)C3)oc2c1 [Example 111F, ethyl 2-[2-(3-{6-carbamoyl-5-[(1-methyl-1H-pyrazol-4-yl)amino]pyrazin-2-yl}azetidin-1-yl)-1,3-benzoxazol-6-yl]-2-methylpropanoate] | 3.23 µM | 0.043 µM | 0.018 µM |  |  | 
Cn1cc(Nc2ncc(C3CN(c4nc5ccc(OCC(C)(C)OP(=O)(O)O)cc5o4)C3)nc2C(N)=O)cn1 [Example 112, 1-{[2-(3-{6-carbamoyl-5-[(1-methyl-1H-pyrazol-4-yl)amino]pyrazin-2-yl}azetidin-1-yl)-1,3-benzoxazol-6-yl]oxy}-2-methylpropan-2-yl dihydrogen phosphate] | 5.86 µM | 0.069 µM | 0.052 µM |  |  | 

Now from value to molecule, other results behind:

IC50 (TYRO3 (455-end)) | IC50 (human AXL (473-end)) | IC50 (human MER (528-end)) | SMILES | % TGI (dose) (MC-38 cells; 10 mg/kg/d) | % TGI (dose) (MC-38 cells; 30 mg/kg/d) | % TGI (dose) (MC-38 cells; 15 mg/kg/d)
0.15 µM | 0.006 µM | 0.001 µM | CC(C)(O)Cn1cc(Nc2ncc(C3CN(c4nc5ccc(F)cc5o4)C3)nc2C(N)=O)cn1 [Example 28, 6-[1-(6-fluoro-1,3-benzoxazol-2-yl)azetidin-3-yl]-3-{[1-(2-hydroxy-2-methylpropyl)-1H-pyrazol-4-yl]amino}pyrazine-2-carboxamide] | 17% |  | 
0.36 µM | 0.011 µM | 0.003 µM | CC(C)(O)Cn1cc(Nc2ncc(C3CN(c4nc5ccccc5o4)C3)nc2C(N)=O)cn1 [Example 30, 6-[1-(1,3-benzoxazol-2-yl)azetidin-3-yl]-3-{[1-(2-hydroxy-2-methylpropyl)-1H-pyrazol-4-yl]amino}pyrazine-2-carboxamide] | 33% |  | 
0.053 µM | 0.005 µM | < 0.001 µM | Cn1cnc(-c2ccc3nc(N4CC(c5cnc(Nc6cnn(C)c6)c(C(N)=O)n5)C4)oc3c2)c1 [Example 105, 6-{1-[6-(1-methyl-1H-imidazol-4-yl)-1,3-benzoxazol-2-yl]azetidin-3-yl}-3-[(1-methyl-1H-pyrazol-4-yl)amino]pyrazine-2-carboxamide] |  |  | 
1.07 µM | 0.006 µM | 0.0018 µM | Cn1cc(Nc2ccc(C3CN(c4nc5ccc(OCC(C)(C)OP(=O)(O)O)cc5o4)C3)nc2C(N)=O)cn1 [Example 106, 1-{[2-(3-{6-carbamoyl-5-[(1-methyl-1H-pyrazol-4-yl)amino]pyridin-2-yl}azetidin-1-yl)-1,3-benzoxazol-6-yl]oxy}-2-methylpropan-2-yl dihydrogen phosphate] |  |  | 
0.046 µM | 0.0015 µM | < 0.001 µM | Cn1cc(Nc2ncc(C3CN(c4nc5ccc(OCC(C)(C)C#N)cc5o4)C3)nc2C(N)=O)cn1 [Example 107, 6-{1-[6-(2-cyano-2-methylpropoxy)-1,3-benzoxazol-2-yl]azetidin-3-yl}-3-[(1-methyl-1H-pyrazol-4-yl)amino]pyrazine-2-carboxamide] |  |  | 
0.28 µM | 0.0018 µM | < 0.001 µM | Cn1cc(Nc2ccc(C3CN(c4nc5ccc(OCCC(C)(C)OC(=O)CN)cc5o4)C3)nc2C(N)=O)cn1 [Example 110, 4-{[2-(3-{6-carbamoyl-5-[(1-methyl-1H-pyrazol-4-yl)amino]pyridin-2-yl}azetidin-1-yl)-1,3-benzoxazol-6-yl]oxy}-2-methylbutan-2-yl glycinate] |  |  | 
0.16 µM | 0.001 µM | < 0.001 µM | Cn1cc(Nc2ncc(C3CN(c4nc5ccc(OCC(C)(C)OC(=O)CN)cc5o4)C3)nc2C(N)=O)cn1 [Example 113, 1-{[2-(3-{6-carbamoyl-5-[(1-methyl-1H-pyrazol-4-yl)amino]pyrazin-2-yl}azetidin-1-yl)-1,3-benzoxazol-6-yl]oxy}-2-methylpropan-2-yl glycinate] |  |  | 
